Laboratory results reported in patent publication US10154673B2, “Method of removing lactose from a solution” (Stellenbosch University, priority 2014, dated 2018).

Columns and labels:
[1] = Competitive activity assay (lactose as inhibitor, ONPG as substrate); type: biochemical; details: for Vmax: ONPG with lactose 6, 16 and 60 mM as competitive inhibitor; for Ki: competitive inhibition by lactose, ONPG as substrate
Description: The protocol for the above activity assay was repeated, but with the addition of lactose as an inhibitor. Lactose was added to final concentration of 6, 16 and 60 mM respectively.
The assay for the activity of β-gal, with lactose as substrate, is relatively complex and generally requires the use of HPLC. It was therefore decided to use a competitive activity assay instead. Lactose was therefore added together with ONPG to determine if the expressed enzymes did have an affinity for the natural substrate. Lactose would compete for the active site with ONPG and therefore the greater the inhibition the higher the affinity of lactose for that particular active site.
The results obtained were analysed with the aid of Michaelis Menten plots and the Ki values for lactose were determined using Graphpad Prism® version 5 for Windows, Graphpad Software, La Jolla Calif. USA.

[2] = ONPG activity assay of purified free β-gal; type: biochemical; details: for Vmax / Km: free enzyme
Description: (§1) Purified β-gal was assayed using a colorimetric activity assay. Both enzymes were assayed at varying substrate concentrations. The assay took place in phosphate buffer (93 mM Sodium phosphate, 1 mM MgCl2, 112 mM β-mercaptoethanol, pH 7.3) with varying amounts of substrate concentration. The assay was performed in a BioTek® PowerWave 340 spectrophotometer at 37° C. for 5 min with a reading taken every 5 s. The buffers were preincubated at 37° C. for 30 min prior to the assay.
The activity needed to be determined for both the wildtype and E537D mutant β-gal prepared for this study, since the addition of the His-tag could influence enzyme activity. The activity of β-gal was determined using the ONPG activity assay. The kinetic parameters (Km and Vmax) were determined using the Michaelis Menten equation and Graphpad Prism® version 5 software for Windows, Graphpad Software, La Jolla Calif. USA.

[3] = Adsorption of β-gal onto Dynabeads (HIPD), BCA protein determination; type: binding; details: room temperature, optimal concentration
Description: To determine the amount (μg) of β-gal that was bound to Dynabeads® (HIPD), a BCA protein assay was performed according to the manufacturer's protocol. A standard curve with BSA was established in a range from 0 to 2 mg/ml. The analysis was performed at 540 nm.
A dilution series of purified β-gal wildtype and E537D mutant was prepared in a concentration range from 0 to 0.4 mg/ml. The dilution series was incubated with the beads (25 μl) for 10 min at 25° C. according to the manufacturer's protocol to ensure optimal adsorption of β-gal onto the beads. The beads were subsequently separated from the solution with a magnet and the supernatant was removed and analysed as described immediately above. The beads were then washed three times in dialysis buffer and the supernatant of the wash steps were also analysed for protein content.
The experimental procedure described above was repeated at 4 and 37° C.
Purified β-gal (wildtype and E537D mutant), was incubated with the beads (25 μl) at room temperature and optimal concentration to ensure maximum binding. The supernatant was removed from the solution at regular time intervals for 10 min. The collected fractions were assayed for protein content as described above. Analysis of β-gal bound to the beads took place with SDS-PAGE and Western blot analyses as outlined above.

[4] = ONPG activity assay of immobilised wildtype β-gal; type: biochemical; details: immobilised on Dynabeads, ONPG as substrate
Description: as §1
70 μg β-gal (both E537D mutant and wildtype) were incubated for 10 min at 25° C. on a Vortex Genie 2 mixer (Healthcare technologies, South Africa) with 25 μl Dyanbeads® (HIPD). The immobilised β-gal was collected with the use of a magnet and the residual supernatant was removed for protein analysis. The beads were then washed three times and the wash supernatant was also kept and analysed for protein content.
The activity of the immobilized wildtype β-gal was determined with an ONPG activity assay as described earlier.

[5] = Partition HPLC analysis of the 14C lactose binding assay; details: for hydrolysis of lactose during the binding experiment: binding assay supernatant, glucose peak at 4 min
Description: […] The immobilised β-gal was then removed from the ^14C lactose solution with a magnet. The original 0.2 nmol C14 solution and the residual supernatant from the binding experiment were analysed with a scintillation counter.
All HPLC analyses were carried out using a Carbohydrate Analysis column (Waters (WAT084038)) and a Radiomatic “Flo-one beta” A-100 radioactive flow detector at ambient temperature. An isochratic mixture of 20:80 water:acetonitrile was used as mobile phase at a flow rate of 2 ml/min. Scintillation fluid was pumped at 6 ml/min for radioactive detection. Retention times of ^14C glucose and ^14C lactose standards were determined separately. This was followed by analysis of the residual supernatant and original ^14C lactose solution from the lactose binding assay.

[6] = Radioactive lactose binding assay (scintillation counting); details: 0.2 nmol β-gal/mg beads, 0.2 nmol 14C lactose, 5 min
Description: Immobilised β-gal (Wildtype and E537D mutant) (0.2 nmol β-gal/mg beads) was incubated with 0.2 nmol ^14C lactose in buffer (500 mM NaPO4, 300 mM NaCl, 5 mM sodium metabisulphate, 0.2% tween20, pH 8) for 5 min. The immobilised β-gal was then removed from the ^14C lactose solution with a magnet. The original 0.2 nmol C14 solution and the residual supernatant from the binding experiment were analysed with a scintillation counter.

Row | Ki [1] [mM] | hydrolysis of lactose during the binding experiment [5] | percentage binding of 14C lactose from solution [6] | percentage binding of 14C lactose from solution ([6]; listed as immobilised wildtype enzyme) | hydrolysis of lactose to glucose ([5]; incubation 20 min) | hydrolysis of lactose to glucose ([5]; incubation an hour (60 min)) | Substance | Vmax [1] [µmol/min/mg] | activity lower/slower than the wildtype β-gal ([2]; ONPG activity, Vmax ratio) [×] | Vmax ([2]; ONPG as substrate (FIG. 19 B legend)) [μmol/min/protein] | Km ([2]; ONPG as substrate, 37° C.) [µM] | Vmax ([2]; ONPG as substrate, 37° C.) [μmol/min/mg protein] | incubation time for maximum adsorption [3] [min] | Km [4] [µM] | Vmax [4] [µmol/min/mg] | Vmax ([2]; ONPG as substrate) [µmol/min/mg] | hydrolysis of lactose to glucose ([5]; incubation three hours)
1 | 19 | – | – | – | – | – | E537D mutant: N-terminal His-tagged E. coli β-galactosidase with Glu537 replaced by Asp | 2 | 115 | 2 | 270 | 2 | 5 | – | – | – | –
2 | – | hydrolysed the lactose completely | not able to bind lactose | approximately 2% | – | – | immobilised wildtype β-gal: His-tagged wildtype β-gal immobilised on Dynabeads (HIPD) cobalt magnetic beads | – | – | – | – | – | – | 1530 | 135 | – | –
3 | 12.4 | – | – | – | – | – | wildtype β-gal: N-terminal His-tagged wildtype E. coli β-galactosidase (lacZ product), expressed and IMAC purified [reference compound] | 230 | – | – | 220 | 230 | 5 | – | – | 230 | –
4 | – | the lactose had not been hydrolysed | approximately 15% | – | relatively small glucose peak appeared | glucose peak had increased significantly | immobilised E537D mutant β-gal: His-tagged E537D mutant β-gal immobilised on Dynabeads (HIPD) cobalt magnetic beads | – | – | – | – | – | – | – | – | – | majority of the substrate had been converted to glucose
